Laboratory results: PubChem BioAssay (NCI)
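Values below derive from 48-hour exposures of cells grown in 96-well plates, with endpoints linearly interpolated between the two concentrations bracketing the appropriate inhibition level. At the TGI there is no net growth.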

How the values were obtained:
Experiment in all cases: NCI-60 cell line screen, 48 h
786-0 renal = system: 786-0 renal
A498 renal = system: A498 renal
A549 NSCLC = system: A549 NSCLC
ACHN renal = system: ACHN renal
BT-549 breast = system: BT-549 breast
CAKI-1 renal = system: CAKI-1 renal
CCRF-CEM leukemia = system: CCRF-CEM leukemia
COLO 205 colon = system: COLO 205 colon
DU-145 prostate = system: DU-145 prostate
EKVX NSCLC = system: EKVX NSCLC
HCC-2998 colon = system: HCC-2998 colon
HCT-116 colon = system: HCT-116 colon
HCT-15 colon = system: HCT-15 colon
HL-60(TB) leukemia = system: HL-60(TB) leukemia
HOP-62 NSCLC = system: HOP-62 NSCLC
HOP-92 NSCLC = system: HOP-92 NSCLC
HS 578T breast = system: HS 578T breast
HT29 colon = system: HT29 colon
IGROV1 ovarian = system: IGROV1 ovarian
K-562 leukemia = system: K-562 leukemia
KM12 colon = system: KM12 colon
LOX IMVI melanoma = system: LOX IMVI melanoma
M14 melanoma = system: M14 melanoma
MALME-3M melanoma = system: MALME-3M melanoma
MCF7 breast = system: MCF7 breast
MDA-MB-231 breast = system: MDA-MB-231 breast
MDA-MB-435 = system: MDA-MB-435
MDA-N = system: MDA-N
MOLT-4 leukemia = system: MOLT-4 leukemia
NCI-H226 lung = system: NCI-H226 lung
NCI-H23 lung = system: NCI-H23 lung
NCI-H460 lung = system: NCI-H460 lung
NCI/ADR-RES ovarian = system: NCI/ADR-RES ovarian
OVCAR-4 ovarian = system: OVCAR-4 ovarian
OVCAR-5 ovarian = system: OVCAR-5 ovarian
OVCAR-8 ovarian = system: OVCAR-8 ovarian
PC-3 prostate = system: PC-3 prostate
RPMI-8226 leukemia = system: RPMI-8226 leukemia
RXF 393 renal = system: RXF 393 renal
SF-268 CNS = system: SF-268 CNS
SF-295 CNS = system: SF-295 CNS
SF-539 CNS = system: SF-539 CNS
SK-MEL-2 melanoma = system: SK-MEL-2 melanoma
SK-MEL-28 melanoma = system: SK-MEL-28 melanoma
SK-MEL-5 melanoma = system: SK-MEL-5 melanoma
SK-OV-3 ovarian = system: SK-OV-3 ovarian
SN12C renal = system: SN12C renal
SNB-19 CNS = system: SNB-19 CNS
SNB-75 CNS = system: SNB-75 CNS
SW-620 colon = system: SW-620 colon
T-47D breast = system: T-47D breast
TK-10 renal = system: TK-10 renal
U251 CNS = system: U251 CNS
UACC-62 melanoma = system: UACC-62 melanoma
UO-31 renal = system: UO-31 renal
NCI-H522 lung = system: NCI-H522 lung
OVCAR-3 ovarian = system: OVCAR-3 ovarian
SR leukemia = system: SR leukemia
UACC-257 melanoma = system: UACC-257 melanoma

## COc1cc2c(cc1O)C1Cc3ccc(OC)c(O)c3C[N+]1(C)CC2 (stereo not drawn)
786-0 renal
  TGI: > 100 µM
A498 renal
  TGI: > 100 µM
A549 NSCLC
  TGI: > 100 µM
ACHN renal
  TGI: > 100 µM
BT-549 breast
  TGI: > 100 µM
CAKI-1 renal
  TGI: > 100 µM
CCRF-CEM leukemia
  TGI: > 100 µM
COLO 205 colon
  TGI: > 100 µM
DU-145 prostate
  TGI: > 100 µM
EKVX NSCLC
  TGI: > 100 µM
HCC-2998 colon
  TGI: > 100 µM
HCT-116 colon
  TGI: > 100 µM
HCT-15 colon
  TGI: > 100 µM
HL-60(TB) leukemia
  TGI: > 100 µM
HOP-62 NSCLC
  TGI: > 100 µM
HOP-92 NSCLC
  TGI: > 100 µM
HS 578T breast
  TGI: > 100 µM
HT29 colon
  TGI: > 100 µM
IGROV1 ovarian
  TGI: > 100 µM
K-562 leukemia
  TGI: > 100 µM
KM12 colon
  TGI: > 100 µM
LOX IMVI melanoma
  TGI: > 100 µM
M14 melanoma
  TGI: > 100 µM
MALME-3M melanoma
  TGI: > 100 µM
MCF7 breast
  TGI: > 100 µM
MDA-MB-231 breast
  TGI: > 100 µM
MDA-MB-435
  TGI: > 100 µM
MDA-N
  TGI: > 100 µM
MOLT-4 leukemia
  TGI: > 100 µM
NCI-H226 lung
  TGI: > 100 µM
NCI-H23 lung
  TGI: > 100 µM
NCI-H460 lung
  TGI: > 100 µM
NCI/ADR-RES ovarian
  TGI: > 100 µM
OVCAR-4 ovarian
  TGI: > 100 µM
OVCAR-5 ovarian
  TGI: > 100 µM
OVCAR-8 ovarian
  TGI: > 100 µM
PC-3 prostate
  TGI: > 100 µM
RPMI-8226 leukemia
  TGI: > 100 µM
RXF 393 renal
  TGI: > 100 µM
SF-268 CNS
  TGI: > 100 µM
SF-295 CNS
  TGI: > 100 µM
SF-539 CNS
  TGI: > 100 µM
SK-MEL-2 melanoma
  TGI: > 100 µM
SK-MEL-28 melanoma
  TGI: > 100 µM
SK-MEL-5 melanoma
  TGI: > 100 µM
SK-OV-3 ovarian
  TGI: > 100 µM
SN12C renal
  TGI: > 100 µM
SNB-19 CNS
  TGI: > 100 µM
SNB-75 CNS
  TGI: > 100 µM
SW-620 colon
  TGI: > 100 µM
T-47D breast
  TGI: > 100 µM
TK-10 renal
  TGI: > 100 µM
U251 CNS
  TGI: > 100 µM
UACC-62 melanoma
  TGI: > 100 µM
UO-31 renal
  TGI: > 100 µM

## N#Cc1c(NC(=S)Nc2ccc(Cl)cc2)sc2c1CCN(N1CCc3c(sc(NC(=S)Nc4ccc(Cl)cc4)c3C#N)C1)C2
786-0 renal
  TGI: 58.8 µM
A498 renal
  TGI: 36.9 µM
A549 NSCLC
  TGI: > 100 µM
ACHN renal
  TGI: > 100 µM
BT-549 breast
  TGI: > 100 µM
CAKI-1 renal
  TGI: > 100 µM
CCRF-CEM leukemia
  TGI: > 100 µM
COLO 205 colon
  TGI: 33.4 µM
DU-145 prostate
  TGI: > 100 µM
EKVX NSCLC
  TGI: > 100 µM
HCC-2998 colon
  TGI: > 100 µM
HCT-116 colon
  TGI: > 100 µM
HCT-15 colon
  TGI: > 100 µM
HL-60(TB) leukemia
  TGI: > 100 µM
HOP-62 NSCLC
  TGI: 55.2 µM
HS 578T breast
  TGI: > 100 µM
HT29 colon
  TGI: 26.5 µM
IGROV1 ovarian
  TGI: 47.8 µM
K-562 leukemia
  TGI: > 100 µM
KM12 colon
  TGI: > 100 µM
LOX IMVI melanoma
  TGI: 23.4 µM
M14 melanoma
  TGI: 23.2 µM
MALME-3M melanoma
  TGI: > 100 µM
MCF7 breast
  TGI: > 100 µM
MDA-MB-231 breast
  TGI: 27.2 µM
MDA-MB-435
  TGI: > 100 µM
MDA-N
  TGI: > 100 µM
MOLT-4 leukemia
  TGI: > 100 µM
NCI-H226 lung
  TGI: 34.4 µM
NCI-H23 lung
  TGI: > 100 µM
NCI-H460 lung
  TGI: > 100 µM
NCI-H522 lung
  TGI: > 100 µM
NCI/ADR-RES ovarian
  TGI: > 100 µM
OVCAR-3 ovarian
  TGI: > 100 µM
OVCAR-4 ovarian
  TGI: > 100 µM
OVCAR-5 ovarian
  TGI: 31.1 µM
OVCAR-8 ovarian
  TGI: 88.5 µM
PC-3 prostate
  TGI: > 100 µM
RPMI-8226 leukemia
  TGI: > 100 µM
RXF 393 renal
  TGI: 78.3 µM
SF-268 CNS
  TGI: > 100 µM
SF-295 CNS
  TGI: 50.4 µM
SF-539 CNS
  TGI: 34.2 µM
SK-MEL-2 melanoma
  TGI: 50.2 µM
SK-MEL-28 melanoma
  TGI: > 100 µM
SK-MEL-5 melanoma
  TGI: 22.3 µM
SK-OV-3 ovarian
  TGI: > 100 µM
SN12C renal
  TGI: > 100 µM
SNB-19 CNS
  TGI: > 100 µM
SNB-75 CNS
  TGI: > 100 µM
SR leukemia
  TGI: > 100 µM
SW-620 colon
  TGI: > 100 µM
T-47D breast
  TGI: > 100 µM
TK-10 renal
  TGI: > 100 µM
U251 CNS
  TGI: 86.2 µM
UACC-257 melanoma
  TGI: > 100 µM
UACC-62 melanoma
  TGI: 41.8 µM
UO-31 renal
  TGI: 59.9 µM
